Structures can show the parent of a compound that is named as a salt. Where two headings read alike, the source gives them in different places.
Key:
[1] = test system: AsPC-1 (G12D); assay: KRAS mutant cell proliferation inhibition assay (CellTiter-Glo 3D), AsPC-1; format: cell-based, human; conditions: AsPC-1 (G12D) cells, 7 days
Procedure: (§1) Positive control: MRTX1133
(§2) • (a) The cells were thawed in T75 cell culture flasks: • (b) When 80%-90% cell confluence was achieved, the cells were passaged.
(§3) The diluted test compound was added to a 384-well cell culture plate using a nanoliter pipetting system, and replicate wells were set. An equal volume of medium was added to the positive control group; an equal volume of DMSO was added to the negative control group. The plate was centrifuged at 1000 rpm at room temperature for 1 min.
(§4) The cells were seeded into a) 384-well culture plate. An equal volume of cells was added to the negative control group, and only an equal volume of medium was added to the positive control group. The plate was centrifuged at 1000 rpm at room temperature for 1 min. The final DMSO concentration in the final compound was 0.5%. The plate was incubated in a thermostatic incubator at 37° C. with 5% CO2 for 7 days.
(§5) CellTiter-Glo® 3D was added to b) 384-well cell culture plate at 20 μL/well. The plate was shaken at 320 rpm in the dark for 20 min, and incubated at room temperature in the dark for 2 h. The luminescence values were read using an Envision multi-mode microplate reader.
(§6) The inhibition rates (IRs) of the test compounds were calculated according to the following formula: IR (%)=(1−(RLU compound−RLU blank control)/(RLU vehicle control−RLU blank control))×100%. The inhibition rates of the compounds at different concentrations were calculated in Excel, and then inhibition curves were plotted and relevant parameters including minimum inhibition rate, maximum inhibition rate and IC50 were calculated using GraphPad Prism software.

[2] = test system: H727 (G12V); assay: KRAS mutant cell proliferation inhibition assay (CellTiter-Glo 3D), H727; format: cell-based, human; conditions: H727 (G12V) cells, 7 days
Procedure: as §1, §2, §3, §4, §5, §6

[3] = test system: PSN-1 (G12R); assay: KRAS mutant cell proliferation inhibition assay (CellTiter-Glo 3D), PSN-1; format: cell-based; conditions: PSN-1 (G12R) cells, 7 days
Procedure: as §1, §2, §3, §4, §5, §6

[4] = test system: MNK1 (WT); assay: Cell proliferation inhibition assay (CellTiter-Glo 3D), MNK1; format: cell-based, human; conditions: MNK1 (WT) cells, 7 days
Procedure: as §1, §2, §3, §4, §5, §6

[5] = test system: SW480 (G12V); assay: KRAS mutant cell proliferation inhibition assay (CellTiter-Glo 3D), SW480; format: cell-based; conditions: SW480 (G12V) cells, 7 days
Procedure: as §1, §2, §3, §4, §5, §6

SMILES: CN(C)C(=O)c1cc2n(n1)CCCN(c1nc(OC[C@@]34CCCN3C[C@@]3(CC3(F)F)C4)nc3c(F)c(-c4cc(N)cc(Cl)c4C(F)(F)F)ncc13)C2 [Example A-25, 5-(7-(5-Amino-3-chloro-2-(trifluoromethyl)phenyl)-2-(((1S,7a'S)-2,2-difluorodihydro-1′H,3′H-spiro[cyclopropane-1,2′-pyrrolizin]-7a′ (5′H)-yl)methoxy)-8-fluoropyrido[4,3-d]pyrimidin-4-yl)-N,N-dimethyl-5,6,7,8-tetrahydro-4H-pyrazolo[1,5-a][1,4]diazepine-2-carboxamide]
- IC50 ([1]; Homo sapiens, ASPC1, 168 h): 33.6 nM
- IC50 ([2]; Homo sapiens, NCI-H727, 168 h): 141 nM
- IC50 ([3]; Homo sapiens, PSN1, 168 h): > 10000 nM
- IC50 ([4]; Homo sapiens, 168 h): 66.3 nM

SMILES: C#Cc1c(F)ccc2cc(O)cc(-c3ncc4c(N5CCCC6(CCO6)C5)nc(OC[C@@]56CCCN5C[C@@]5(CC5(F)F)C6)nc4c3F)c12 (stereo partly drawn) [Example A-15, 4-(2-(((1.S,7a'S)-2,2-difluorodihydro-1′H,3′H-spiro[cyclopropane-1,2′-pyrrolizin]-7a′ (5′H)-yl)methoxy)-8-fluoro-4-(1-oxa-6-azaspiro[3.5]nonan-6-yl)pyrido[4,3-d]pyrimidin-7-yl)-5-ethynyl-6-fluoronanhthalen-2-ol]
- IC50 ([1]; Homo sapiens, ASPC1, 168 h): 164 nM
- IC50 ([2]; Homo sapiens, NCI-H727, 168 h): 450 nM
- IC50 ([3]; Homo sapiens, PSN1, 168 h): > 10000 nM
- IC50 ([4]; Homo sapiens, 168 h): 171 nM

SMILES: CCc1c(F)ccc2cc(O)cc(-c3ncc4c(N5CCC[C@](C)(O)C5)nc(OCC56CCCN5CC5(C6)CC5(F)F)nc4c3F)c12 (stereo in doubt) [Example A-13A, (S)-1-(2-(((trans)-2,2-difluorodihydro-1′H,3′H-spiro[cyclopropane-1,2′-pyrrolizin]-7a′ (5′H)-yl)methoxy)-7-(8-ethyl-7-fluoro-3-hydroxynaphthalen-1-yl)-8-fluoropyrido[4,3-d]pyrimidin-4-yl)-3-methylpiperidin-3-ol]
- IC50 [1]: > 1000 nM
- IC50 [2]: 1990 nM
- IC50 ([3]; read-out: PSN1 IC50): > 10000 nM
- IC50 [4]: 634 nM

SMILES: CCc1c(F)ccc2cc(O)cc(-c3ncc4c(N5CCCn6nc(C(=O)N(C)C)cc6C5)nc(OC[C@@]56CCCN5C[C@@]5(CC5(F)F)C6)nc4c3F)c12 [Example A-24, 5-(2-(((1S,7a'S)-2,2-Difluorodihydro-1′H,3′H-spiro[cyclopropane-1,2′-pyrrolizin]-7a′ (5′H)-yl)methoxy)-7-(8-ethyl-7-fluoro-3-hydroxynaphthalen-1-yl)-8-fluoropyrido[4,3-d]pyrimidin-4-yl)-N,N-dimethyl-5,6,7,8-tetrahydro-4H-pyrazolo[1,5-a][1,4]diazepine-2-carboxamide]
- IC50 ([1]; Homo sapiens, ASPC1, 168 h): 11.1 nM
- IC50 ([2]; Homo sapiens, NCI-H727, 168 h): 101 nM
- IC50 ([3]; Homo sapiens, PSN1, 168 h): > 10000 nM
- IC50 ([4]; Homo sapiens, 168 h): 19.7 nM

SMILES: CC1(O)COCCN(c2nc(OC[C@@]34CCCN3C[C@@]3(CC3(F)F)C4)nc3c(F)c(-c4cc(N)cc(Cl)c4C(F)(F)F)ncc23)C1 (stereo partly drawn) [Example A-39, 4-(7-(5-Amino-3-chloro-2-(trifluoromethyl)phenyl)-2-(((1S,7a'S)-2,2-difluorodihydro-1′H,3′H-spiro[cyclopropane-1,2′-pyrrolizin]-7a′ (5′H)-yl)methoxy)-8-fluoropyrido[4,3-d]pyrimidin-4-yl)-6-methyl-1.4-oxazenan-6-ol]
- IC50 ([1]; Homo sapiens, ASPC1, 168 h): 293 nM
- IC50 ([2]; Homo sapiens, NCI-H727, 168 h): 604 nM
- IC50 ([3]; Homo sapiens, PSN1, 168 h): > 10000 nM
- IC50 ([4]; Homo sapiens, 168 h): 273 nM

SMILES: CCc1c(F)ccc2cc(O)cc(-c3ncc4c(N5CCC[C@@](C)(O)C5)nc(OCC56CCCN5CC5(C6)CC5(F)F)nc4c3F)c12 (stereo in doubt) [Example A-13B, (R)-1-(2-(((trans)-2,2-difluorodihydro-l′H,3′H-spiro[cyclopropane-1,2′-pyrrolizin]-7a′ (5′H)-yl)methoxy)-7-(8-ethyl-7-fluoro-3-hydroxynaphthalen-1-yl)-8-fluoropyrido[4,3-d]pyrimidin-4-yl)-3-methylpiperidin-3-ol]
- IC50 [1]: 18.8 nM
- IC50 [2]: 51.7 nM
- IC50 ([3]; read-out: PSN1 IC50): 506 nM
- IC50 [4]: 12.9 nM

SMILES: Nc1cc(Cl)c(C(F)(F)F)c(-c2ncc3c(N4CCCC5(CCO5)C4)nc(OC[C@@]45CCCN4C[C@@]4(CC4(F)F)C5)nc3c2F)c1 (stereo partly drawn) [Example A-14, 3-Chloro-5-(2-(((1S,7a'S)-2,2-difluorodihydro-1′H,3′H-spiro[cyclopropane-1,2′-pyrrolizin]-7a′ (5′H)-yl)methoxy)-8-fluoro-4-(1-oxa-6-azaspiro[3.5]nonan-6-yl)pyrido[4,3-d]pyrimidin-7-yl)-4-(trifluoromethyl)aniline]
- IC50 ([1]; Homo sapiens, ASPC1, 168 h): 61.1 nM
- IC50 ([2]; Homo sapiens, NCI-H727, 168 h): 242 nM
- IC50 ([3]; Homo sapiens, PSN1, 168 h): > 10000 nM
- IC50 ([4]; Homo sapiens, 168 h): 133 nM

SMILES: CCc1c(F)ccc2cc(O)cc(N3CCc4c(nc(OC[C@@]56CCCN5C[C@@]5(CC5(F)F)C6)nc4N4CCCn5nc(C(=O)N(C)C)cc5C4)C3)c12 [Example B-13, 5-(2-(((1S,7a'S)-2,2-Difluorodihydro-1′H,3′H-spiro[cyclopropane-1,2′-pyrrolizin]-7a′ (5′H)-yl)methoxy)-7-(8-ethyl-7-fluoro-3-hydroxynaphthalen-1-yl)-5,6,7,8-tetrahydropyrido[3,4-d]pyrimidin-4-yl)-N,N-dimethyl-5,6,7,8-tetrahydro-4H-pyrazolo[1,5-a][1,4]diazepine-2-carboxamide]
- IC50 ([1]; Homo sapiens, ASPC1, 168 h): 8.98 nM
- IC50 ([2]; Homo sapiens, NCI-H727, 168 h): 47.3 nM
- IC50 ([3]; Homo sapiens, PSN1, 168 h): 2350 nM
- IC50 ([4]; Homo sapiens, 168 h): 24.3 nM

SMILES: CCc1c(F)ccc2cc(O)cc(-c3ncc4c(N5CCC[C@]6(C5)NC(=O)NC6=O)nc(OC[C@@]56CCCN5C[C@@]5(CC5(F)F)C6)nc4c3F)c12 [Example A-27, (R)-7-(2-(((1S,7a'S)-2,2-Difluorodihydro-1′H,3′H-spiro[cyclopropane-1,2′-pyrrolizin]-7a′ (5′H)-yl)methoxy)-7-(8-ethyl-7-fluoro-3-hydroxynaphthalen-1-yl)-8-fluoropyrido[4,3-d]pyrimidin-4-yl)-1,3,7-triazaspiro[4.5]decane-2,4-dione]
- IC50 ([1]; Homo sapiens, ASPC1, 168 h): 23.2 nM
- IC50 ([2]; Homo sapiens, NCI-H727, 168 h): 35.9 nM
- IC50 ([3]; Homo sapiens, PSN1, 168 h): 79.7 nM
- IC50 ([4]; Homo sapiens, 168 h): 5.35 nM

SMILES: CCc1c(F)ccc2cc(O)cc(N3CCc4c(nc(OCC56CCCN5C[C@@]5(C6)CC5(F)F)nc4N4CCCn5nc(C(=O)N(C)C)cc5C4)C3)c12 (stereo in doubt) [Example B-14, 5-(2-(((1R,7a′R)-2,2-Difluorodihydro-1′H,3′H-spiro[cyclopropane-1,2′-pyrrolizin]-7a′ (5′H)-yl)methoxy)-7-(8-ethyl-7-fluoro-3-hydroxynaphthalen-1-yl)-5,6,7,8-tetrahydropyrido[3,4-d]pyrimidin-4-yl)-N,N-dimethyl-5,6,7,8-tetrahydro-4H-pyrazolo[1,5-a][1,4]diazepine-2-carboxamide hydrochloride]
- IC50 ([1]; Homo sapiens, ASPC1, 168 h): 26.9 nM
- IC50 ([2]; Homo sapiens, NCI-H727, 168 h): 127 nM
- IC50 ([3]; Homo sapiens, PSN1, 168 h): 7560 nM
- IC50 ([4]; Homo sapiens, 168 h): 92.3 nM

SMILES: CCc1c(F)ccc2cc(O)cc(-c3ncc4c(N5CCC[C@@]6(CCO6)C5)nc(OC[C@@]56CCCN5C[C@@]5(CC5(F)F)C6)nc4c3F)c12 [Example A-16A, 4-(2-(((15,7a'S)-2,2-difluorodihydro-1′H,3′H-spiro[cyclopropane-1,2′-pyrrolizin]-7a′ (5′H)-yl)methoxy)-8-fluoro-4-((R)-1-oxa-6-azaspiro[3.5]nonan-6-yl)pyrido[4,3-d]pyrimidin-7-yl)-5-ethyl-6-fluoronaphthalen-2-ol]
- IC50 [1]: 5.7 nM
- IC50 [5]: 11.1 nM

SMILES: CN(c1nc(OC[C@@]23CCCN2C[C@@]2(CC2(F)F)C3)nc2c(F)c(-c3cc(N)cc(Cl)c3C(F)(F)F)ncc12)[C@H]1C[C@@H]1F [Example A-46, 7-(5-Amino-3-chloro-2-(trifluoromethyl)phenyl)-2-(((15,7a'S)-2,2-difluorodihydro-1′H,3′H-spiro[cyclopropane-1,2′-pyrrolizin]-7a′ (5′H)-yl)methoxy)-8-fluoro-N-((trans)-2-fluorocyclopropvl)-N-methylpyrido[4,3-d]pyrimidin-4-amine]
- IC50 ([1]; Homo sapiens, ASPC1, 168 h): 732 nM
- IC50 ([5]; Homo sapiens, 168 h): 482 nM

SMILES: C#Cc1c(F)ccc2cc(O)cc(-c3ncc4c(N5CCCOC6CC65)nc(OC[C@@]56CCCN5C[C@@]5(CC5(F)F)C6)nc4c3F)c12 (stereo partly drawn) [Example A-29, 4-(4-((cis)-2-Oxa-6-azabicyclo[5.1.0]octan-6-yl)-2-(((1,5,7a'S)-2,2-difluorodihydro-1′H,3′H-spiro[cyclopropane-1,2′-pyrrolizin]-7a′ (5′H)-yl)methoxy)-8-fluoropyrido[4,3-d]pyrimidin-7-yl)-5-ethynyl-6-fluoronaphthalen-2-ol]
- IC50 ([1]; Homo sapiens, ASPC1, 168 h): 4.85 nM
- IC50 ([5]; Homo sapiens, 168 h): 2.1 nM

SMILES: CCc1c(F)ccc2cc(O)cc(-c3ncc4c(N(C)[C@H]5C[C@@H]5F)nc(OC[C@@]56CCCN5C[C@@]5(CC5(F)F)C6)nc4c3F)c12 [Example A-45, 4-(2-(((1,5,7a'S)-2,2-Difluorodihydro-1′H,3′H-spiro[cyclopropane-1,2′-pyrrolizin]-7a′ (5′H)-yl)methoxy)-8-fluoro-4-(((trans)-2-fluorocyclopropyl)(methyl)amino)pyrido[4,3-d]pyrimidin-7-yl)-5-ethyl-6-fluoronaphthalen-2-ol]
- IC50 ([1]; Homo sapiens, ASPC1, 168 h): 74.4 nM
- IC50 ([5]; Homo sapiens, 168 h): 41 nM

From patent US20260015363A1, “SUBSTITUTED PYRIMIDINE-FUSED RING INHIBITOR, METHOD FOR PREPARING SAME, AND USE THEREOF” (Suzhou Zelgen Biopharmaceuticals Co., Ltd., priority 2022, published 2026)
